In test [1] the test system is Cisplatin-induced uremia in the Sprague-Dawley rat model. The note with it: single dose of 10 μg/1 mL/head and 20 μg/1 mL/head IV, vs control group of excipient. The protocol:
(§1) The intravenous administration was done by fixing an animal into a correction frame, and slowly injecting at a rate of within 1 mL/min through the micro vein using a syringe equipped with 26 gauges needle. The intraperitoneal administration was performed by fixing the animal by a transdermal skin fixation method and intraperitoneally injecting using a syringe equipped with 26 gauges needle.
Serum obtained from the centrifugation was tested for blood urea nitrogen (BUN) and […] (CRE) using a blood biochemical analyzer (7180 Hitachi, Japan).

For test [2] the test system is unchanged. The protocol:
as §1
Finally, animals were inhaled with ether on an necropsy day to anesthetize and euthanize, and kidneys were extracted and fixed in a 10% neutral buffered formalin solution, and the fixed tissues were cut, dehydrated, paraffin embedded and hematoxylin & eosin stained to make a specimens for histopathological examination after these histological treatment. And then, the obtained specimen is subjected to speculum using an optical microscope (Olympus BX53, Japan).

For the substance “alarin (human) trifluoroacetate salt [test substance]”, in test [1], the blood biochemical level entry is listed as “tendency to improve”. Further, the “histopathological examination results, lesion level” value in test [2] (10 and 20 μg/1 mL/head IV single dose, across doses) is “dose-related change trend and significant changes in lesion level”. Further, the “level of lesion (histopathological examination of kidney)” value in test [2] (high dose group (20 μg/1 mL/head IV, single dose), necropsy Day 7, H&E, vs control group) is reported as “significantly lower”.

Values taken from patent US11642392B2, “Therapeutic agent of uremia containing alarin as the main ingredient” (JU TIDE CO., LTD., priority 2017, dated 2023).
